Reference: patent US20020115642A1, “Beta-lactam antibiotics” (priority 2000, published 2002)
In brackets after ≈: the same amount, converted by molar mass. Like-named read-outs stand apart in the source and are kept apart here.

Legend:
Assay in all cases: Susceptibility testing (MIC, modified NCCLS method)
[1] = system: E. coli/TEM-1; type: cell-based, Escherichia coli
Procedure: (§1) The NCCLS (National Committee for Clinical Laboratory Standards) method to determine MIC's of antimicrobial compounds was modified for high-throughput screening. All stocks of tested compounds were prepared in either water or in dimethylsulfoxide (DMSO), depending on the solubility. […] Briefly 20 2-fold serial dilutions of testing compounds from the highest concentration were made in a 384-well microtiter plate. Each well was inoculated with testing bacteria in broth to a final concentration of approximately 1-1.5×10^6 cells/ml. Bacterial growth was determined by the increase of optical density at 600 nm using a microplate reader (Tecan SpectraFluor Plus).

[2] = system: E. coli N; type: cell-based, Escherichia coli; details: E. coli (N)
Procedure: as §1

[3] = system: P. aeruginosa; type: cell-based, Pseudomonas aeruginosa
Procedure: as §1

[4] = system: Staphylococcus aureus; type: cell-based
Procedure: as §1

[5] = system: K. pneumoniae; type: cell-based, Klebsiella pneumoniae
Procedure: as §1

[6] = system: E. faecalis; type: cell-based, Enterococcus faecalis
Procedure: as §1

[7] = system: E. aerogenes; type: cell-based, Enterobacter aerogenes
Procedure: as §1

[8] = system: E. cloacae; type: cell-based, Enterobacter cloacae
Procedure: as §1

[9] = Escherichia coli, read-out: MIC
[10] = Enterococcus faecalis, ATCC49757, E. faecalis ATCC 49757, read-out: MIC
[11] = Enterococcus faecalis, ATCC700802, E. faecalis ATCC 700802, read-out: MIC
[12] = Pseudomonas aeruginosa, ATCC21726, P. aeruginosa ATCC 21726, read-out: MIC
[13] = Pseudomonas aeruginosa, ATCC29872, P. aeruginosa ATCC 29872, read-out: MIC
[14] = Enterobacter cloacae, ATCC23355, E. cloacae ATCC 23355, read-out: MIC
[15] = Staphylococcus aureus, ATCC11632, S. aureus ATCC 11632, read-out: MIC
[16] = Staphylococcus aureus, ATCC33594, S. aureus ATCC 33594, read-out: MIC
[17] = Staphylococcus aureus, ATCC700260, S. aureus ATCC 700260, read-out: MIC
[18] = Staphylococcus aureus, ATCC700699, S. aureus ATCC 700699, read-out: MIC
[19] = Klebsiella pneumoniae, ATCC51503, K. pneumoniae ATCC 51503, read-out: MIC
[20] = Klebsiella pneumoniae, ATCC700721, K. pneumoniae ATCC 700721, read-out: MIC
[21] = Klebsiella aerogenes, ATCC35028, E. aerogenes ATCC 35028, read-out: MIC

| Compound | MIC ([3]; P. aeruginosa ATCC 21726) [µg/mL] | MIC ([4]; S. aureus ATCC 700260) [ng/mL] | MIC ([5]; K. pneumoniae ATCC 700721) [µg/mL] | MIC ([6]; E. faecalis ATCC 49757) [µg/mL] | MIC ([4]; S. aureus ATCC 700699) [ng/mL] | MIC ([5]; K. pneumoniae ATCC 51503) [µg/mL] | MIC ([7]; E. aerogenes ATCC 35028) [µg/mL] | MIC [3, 12] [µg/mL] | MIC [4, 17] [ng/mL] | MIC [4, 18] [ng/mL] | MIC [5, 20] [µg/mL] | MIC ([6]; E. faecalis ATCC 700802) [µg/mL] | MIC ([3]; P. aeruginosa ATCC 29872) [µg/mL] | MIC ([8]; E. cloacae ATCC 23355) [µg/mL] | MIC ([4]; S. aureus ATCC 11632) [ng/mL] | MIC ([4]; S. aureus ATCC 33594) [ng/mL] | also measured |
| --- | --- | --- | --- | --- | --- | --- | --- | --- | --- | --- | --- | --- | --- | --- | --- | --- | --- |
| 3-(2-(2,4-Dichlorophenoxy)-5-chlorophenoxy)methyl-7-(1-phenyl-2-aminoacetamido)-3-cephem-4-carboxylic acid [Compound 37] | >16 | 3.9 | 8 | – | – | – | – | – | – | – | – | – | – | – | – | – | MIC ([1]; E. coli/Tem-1): 0.12 µg/mL; MIC [2]: 4 µg/mL |
| 3-(2-(2,4-Dichlorophenoxy)-5-chlorophenoxy)methyl-7-[4-(2-aminothiazole)-yl-2-acetamido]-3-cephem-4-carboxylic acid [Compound 39] | >16 | 2 | – | 16 | 4000 | 16 | >16 | – | – | – | – | – | – | – | – | – | MIC ([1]; E. coli/Tem-1): 0.063 µg/mL; MIC [2]: 1 µg/mL |
| O=C(Cc1cccs1)NC1C(=O)N2C(C(=O)O)C(COC(=O)Oc3cc(Cl)ccc3Oc3ccc(Cl)cc3Cl)=CS[C@H]12 (stereo partly shown) [Compound 15, 3-((2-(2,4-Dichlorophenoxy)-5-chlorophenoxy)carbonyloxy)methyl-7-(2-thienylacetamido)-2-cephem-4-carboxylic acid] | – | – | – | – | – | – | – | > 15.7 | 61 (≈ 0.0911 µM) | 61 (≈ 0.0911 µM) | 1.96 (≈ 2.93 µM) | – | – | – | – | – | MIC ([1]; Escherichia coli): 0.0031 µg/mL (≈ 0.00463 µM); MIC [2, 9]: 0.008 µg/mL (≈ 0.0119 µM); MIC [6, 10]: > 15.7 µg/mL; MIC [6, 11]: 15.7 µg/mL (≈ 23.4 µM); MIC [3, 13]: > 15.7 µg/mL; MIC [8, 14]: 0.25 µg/mL (≈ 0.373 µM); MIC [4, 15]: 610 ng/mL (≈ 0.911 µM); MIC [4, 16]: 61 ng/mL (≈ 0.0911 µM); MIC [5, 19]: 1.96 µg/mL (≈ 2.93 µM); MIC [7, 21]: 0.98 µg/mL (≈ 1.46 µM) |
| O=C(Cc1cccs1)NC1C(=O)N2C(C(=O)O)=C(COC(=O)Oc3cc(Cl)ccc3Oc3ccc(Cl)cc3Cl)C[S+]([O-])[C@H]12 (stereo partly shown) [Compound 17, 3-((2-(2,4-Dichlorophenoxy)-5-chlorophenoxy)carbonyloxy)methyl-7-(2-thienylacetamido)-1-oxo-3-cephem-4-carboxylic acid] | – | – | – | – | – | – | – | > 16.5 | 0.063 (≈ 9.18e-05 µM) | 0.25 (≈ 0.000364 µM) | 1.03 (≈ 1.5 µM) | – | – | – | – | – | MIC ([1]; Escherichia coli): 0.032 µg/mL (≈ 0.0467 µM); MIC [2, 9]: 0.016 µg/mL (≈ 0.0233 µM) |
| O=C(Cc1cccs1)NC1C(=O)N2C(C(=O)O)=C(CC=COc3cc(Cl)ccc3Oc3ccc(Cl)cc3Cl)CSC12 (stereo not shown) [Compound 24, 3-(1-(2-(2,4-Dichlorophenoxy)-5-chlorophenoxy)-3-propenyl)-7-(2-thienylacetamido)-3-cephem-4-carboxylic acid] | >16.6 | 0.01 (≈ 1.53e-05 µM) | 2.07 (≈ 3.17 µM) | 4.14 (≈ 6.35 µM) | 32 (≈ 0.0491 µM) | 2.07 (≈ 3.17 µM) | 4.14 (≈ 6.35 µM) | – | – | – | – | 8.28 (≈ 12.7 µM) | >16.6 | 2.07 (≈ 3.17 µM) | 65 (≈ 0.0997 µM) | 65 (≈ 0.0997 µM) | MIC ([1]; E. coli/Tem-1): 0.016 µg/mL (≈ 0.0245 µM); MIC [2]: 0.26 µg/mL (≈ 0.399 µM) |
| O=C(Cc1cccs1)NC1C(=O)N2C(C(=O)O)=C(C=CCOc3ccc(Cl)cc3C(=O)Nc3ccc(Cl)c(Cl)c3)CS[C@H]12 (stereo partly shown) [Compound 35, 3-{3-[4-Chloro-2-(3,4-dichloro-phenylcarbamoyl)-phenoxy]-propenyl}-7-(2-thiophene-acetmido)-3-cephem-4-carboxylic acid] | >32 | 250 (≈ 0.368 µM) | >32 | 8 (≈ 11.8 µM) | >32000 | >32 | >32 | – | – | – | – | >32 | >32 | >32 | 63 (≈ 0.0928 µM) | 63 (≈ 0.0928 µM) | – |
| O=C(O)CCC(=O)N[C@@H]1C(=O)N2C(C(=O)O)=C(COc3cc(Cl)ccc3Oc3ccc(Cl)cc3Cl)CS[C@H]12 [Compound 36] | – | – | – | – | – | – | – | > 32 | > 32000 | > 32000 | > 32 | – | – | – | – | – | MIC [6, 10]: > 32 µg/mL; MIC [6, 11]: > 32 µg/mL; MIC [3, 13]: > 32 µg/mL; MIC [8, 14]: > 32 µg/mL; MIC [4, 15]: > 32000 ng/mL; MIC ([4]; Staphylococcus aureus, ATCC33591, S. aureus ATCC 33591, read-out: MIC): 2000 ng/mL (≈ 3.32 µM); MIC [4, 16]: > 32000 ng/mL; MIC [5, 19]: > 32 µg/mL; MIC [7, 21]: > 32 µg/mL |
| NC(C(=O)NC1C(=O)N2C(C(=O)O)=C(COc3cc(Cl)ccc3Oc3ccc(Cl)cc3Cl)CS[C@H]12)c1ccc(O)cc1 (stereo partly shown) [Compound 41, 3-(2-(2,4-Dichlorophenoxy)-5-chlorophenoxy)methyl-7-[2-amino-2-(4-hydroxy-phenyl)acetamido)-3-cephem-4-carboxylic acid] | – | – | – | – | – | – | – | > 32 | 63 (≈ 0.0968 µM) | 63 (≈ 0.0968 µM) | 8 (≈ 12.3 µM) | – | – | – | – | – | MIC [2, 9]: 0.25 µg/mL (≈ 0.384 µM); MIC [6, 10]: 32 µg/mL (≈ 49.2 µM); MIC [6, 11]: 32 µg/mL (≈ 49.2 µM); MIC [3, 13]: > 32 µg/mL; MIC [8, 14]: 1 µg/mL (≈ 1.54 µM); MIC [4, 15]: 63 ng/mL (≈ 0.0968 µM); MIC [4, 16]: 63 ng/mL (≈ 0.0968 µM); MIC [5, 19]: 8 µg/mL (≈ 12.3 µM); MIC [7, 21]: 4 µg/mL (≈ 6.15 µM) |
| CON=C(C(=O)NC1C(=O)N2C(C(=O)O)=C(COc3cc(Cl)ccc3Oc3ccc(Cl)cc3Cl)CSC12)c1csc(N)n1 (stereo not shown) [Compound 44] | >32 | 63 (≈ 0.092 µM) | 8 (≈ 11.7 µM) | 32 (≈ 46.7 µM) | >32000 | 8 (≈ 11.7 µM) | >32 | – | – | – | – | 32 (≈ 46.7 µM) | >32 | 4 (≈ 5.84 µM) | 500 (≈ 0.73 µM) | 63 (≈ 0.092 µM) | – |
| CC(=O)NC1C(=O)N2C(C(=O)O)=C(COc3cc(Cl)ccc3Oc3ccc(Cl)cc3Cl)CSC12 (stereo not shown) [Compound 45] | >32 | 63 (≈ 0.116 µM) | 2 (≈ 3.68 µM) | 16 (≈ 29.4 µM) | 16000 (≈ 29.4 µM) | 8 (≈ 14.7 µM) | >32 | – | – | – | – | 32 (≈ 58.8 µM) | >32 | >32 | >32000 | 63 (≈ 0.116 µM) | – |
| C[C@@H](O)[C@H]1C(=O)N2C(C(=O)O)=C(SCCN=CN)C[C@H]12 [Imipenem, reference compound] | – | – | – | – | – | – | – | – | – | – | – | – | – | – | – | – | MIC range ([8]; E. cloacae (1)): 0.0078 µg/mL (≈ 0.0261 µM); MIC ([8]; Enterobacter cloacae, E. cloacae (1), read-out: GM* MIC (geometric mean)): 0.0078 µg/mL (≈ 0.0261 µM); MIC range ([5]; K. pneumoniae (5)): 0.063 to 8 µg/mL; MIC ([5]; Klebsiella pneumoniae, K. pneumoniae (5), read-out: GM* MIC (geometric mean)): 0.46 µg/mL (≈ 1.54 µM); MIC range ([7]; E. aerogenes (5)): 0.5 to 1 µg/mL; MIC ([7]; Klebsiella aerogenes, E. aerogenes (5), read-out: GM* MIC (geometric mean)): 0.66 µg/mL (≈ 2.2 µM) |
